Reference: patent US4992432A, “3-phenyl-thiazepinones as calcium regulating agents” (Hoffmann-La Roche Inc., priority 1990, dated 1991)
Structures can show the parent of a compound that is named as a salt.

Test system: isolated rat aortic strips
Assay: Contraction of Rat Aortic Strips (inhibition of calcium-induced contracture, calcium channel blocking activity)
Assay type: cell-based
Conditions: for inhibition at 0.3 µM: Rattus norvegicus, 3×10^-7 M compound, 15 minutes prior to and during calcium curve, 2 mM Ca++, 45 mM potassium, as compared to the control, read-out: % Inhibition (effect on the 2mM Ca++ contracture); for reduction in responsiveness to / contracture at 2 mM Ca++ (in words): 3×10^-7 M, 15 minute exposure
Protocol: The calcium channel blocking activity of compounds of formula I was determined by measuring the effect of compounds of formula I on isolated rat aortic strips. Contraction of Rat Aortic Strips Aortas were excised from rats, placed in Krebs-Henseleit solution, modified so as to be calcium free, with a depolarized level of potassium (45 mM), and 0.02 mM EDTA. The aorta was then helically cut into a strip. This strip was then divided into four equal segments which were hung in isolated tissue chambers, attached to the appropriate tranducers and subjected to 500 mg basal tension. After a period of stabilization under these conditions, calcium was introduced into the bath and the tissues contracted in a concentration dependent manner. When no calcium is available in the bathing media, and the potential dependent calcium channels are opened by the high potassium level, contractility is dependent on the level of calcium introduced into the bath. By adding increments of calcium into the bath, a reproducible concentration-dependent contracture can be obtained. […] The number for untreated controls was derived by measuring contracture for two runs where calcium alone was added. […] The inhibition in contractile response at 2mMCa++was measured as a per cent inhibition as compared to the control.

For `COc1ccc([C@@H]2SC=C(c3ccccc3)N(CCN(C)C)C(=O)[C@@H]2OC)cc1` (relative stereo) [C, cis-rac.6,7-Dihydro-6-methoxy-7-(4-methoxyphenyl)-4[2-(dimethylamino)ethyl-3-phenyl-1,4-thiazepin-5(4H)-one hydrochloride], which inhibition at 0.3 µM is on record?
The inhibition at 0.3 µM was -22.1%.

How did the inhibition at 0.3 µM turn out when `COc1ccc([C@H]2SC=C(c3ccccc3)N(CCN(C)C)C(=O)[C@H]2O)cc1` (racemic) [D, cis-rac.-6,7-Dihydro-6-hydroxy-7-(4-methoxyphenyl)-4[2-(dimethylamino)ethyl]-3-phenyl-1,4-thiazepin-5(4H)-one hydrochloride] was run?
Its inhibition at 0.3 µM is -16.5%.

What does the source list for `COc1ccc([C@@H]2SC=C(c3ccccc3)N(CCN(C)C)C(=O)[C@@H]2OC(C)=O)cc1` [Compound A, (+)-cis-6-(Acetyloxy)-6,7-dihydro-7-(4-methoxyphenyl) 4-[2-(dimethylamino)ethyl]-3-phenyl-1,4-thiazepin-5-(4H)-one hydrochloride]?
reduction in responsiveness to / contracture at 2 mM Ca++ (in words): inhibited almost two thirds of the contracture; inhibition at 0.3 µM: -63%

How did the inhibition at 0.3 µM turn out when `COc1ccc([C@@H]2SC=C(c3ccccc3)N(CCN(C)C)C(=O)[C@@H]2O)cc1` [E] was run?
Its inhibition at 0.3 µM is -13%.

Which results are given for `COc1ccc([C@@H]2Sc3ccccc3N(CCN(C)C)C(=O)[C@@H]2OC(C)=O)cc1` [Diltiazem, reference compound]?
reduction in responsiveness to / contracture at 2 mM Ca++ (in words): marked reduction in responsiveness; inhibition at 0.3 µM: -77%

`COc1ccc([C@@H]2SC=C(c3ccccc3)N(CCN(C)C)C(=O)[C@H]2O)cc1` (racemic) [H, trans-rac.-6,7-Dihydro-6-hydroxy-7-(4-methoxyphenyl) -4-[2-(dimethylamino)ethyl]-3-phenyl-1,4-thiazepin-5 (4H)-one (E)-2-butenedioate] was tested. Which inhibition at 0.3 µM did it give?
Its inhibition at 0.3 µM is -5.6%.

With `COc1ccc([C@@H]2SC=C(c3ccccc3)N(CCN(C)C)C(=O)[C@H]2OC(C)=O)cc1` (racemic) [G, trans-rac.-6-(Acetyloxy)-6,7-dihydro-7-(4-methoxy-phenyl)-4-[2-(dimethylamino)ethyl]-3-phenyl-1,4-thiazepin-5(4H)-one hydrochloride] as the molecule, how does the inhibition at 0.3 µM read?
The inhibition at 0.3 µM was -8.4%.

How did the inhibition at 0.3 µM turn out when `COc1ccc([C@@H]2SC=C(c3ccccc3)N(CCN(C)C)C(=O)[C@@H]2OC(C)=O)cc1` (relative stereo) [Compound B, cis-rac.6-(Acetyloxy)-6,7-dihydro-7-(4-methoxyphenyl) -4-[2-(dimethylamino)ethyl]-3-phenyl-1,4-thiazepin-5(4H)-one hydrochloride] was run?
The inhibition at 0.3 µM was -26.8%.

Which inhibition at 0.3 µM does the source give for `COc1ccc([C@H]2SC=C(c3ccccc3)N(CCN(C)C)C(=O)[C@H]2OC(C)=O)cc1` [F, (-)-cis-6-(Acetyloxy)-6,7-dihydro-7-(4-methoxyphenyl) -4-[2-(dimethylamino)ethyl]-3-phenyl-1,4-thiazepin-5 (4H)-one [S-(R,* R,*)]-2,3-dihydroxybutanedioic acid salt] here?
The inhibition at 0.3 µM was -9.1%.
